Reference: PMC10380726, “Cyanocobalamin-Modified Colistin–Hyaluronan Conjugates: Synthesis and Bioactivity” (International Journal of Molecular Sciences, 2023)

Assays:
P. aeruginosa ATCC 27853 = test: Antimicrobial activity, microtiter broth dilution method; format: cell-based, Pseudomonas aeruginosa; details: 1 × 10^7 CFU/mL, Mueller–Hinton broth, 24 h at 37 °C, OD 630 nm, concentration equivalent to CT
Description: The antimicrobial activity of HA–CT–B12 was tested using the microtiter broth dilution method, as previously reported. P. aeruginosa ATCC 27853 (Museum of Microbiological Cultures, State Research Institute of Highly Pure Biopreparations, St. Petersburg, Russia) was used as the experimental microorganism. Briefly, HA–CT–B12 conjugate stock solutions were prepared by diluting samples in Mueller–Hinton broth to a maximum 2-fold concentration equivalent to CT. Serial dilutions of CT (64 to 0.25 μg/mL) were then plated on Luria-Bertani agar culture plates. The antimicrobial efficacy of the HA–CT–B12 conjugates was confirmed by the absence of P. aeruginosa growth. P. aeruginosa suspension was serially diluted 1:100 in Müller–Hinton broth to obtain a concentration of approximately 1 × 10^7 CFU/mL. Then, 125 µL of the inoculum was added to the wells of the culture plate containing HA–CT–B12 solutions in Müller–Hinton broth. […] The plate was incubated for 24 h at 37 °C and the optical density (OD) was measured at 630 nm using an ELx808™ Absorbance Microplate Reader (BioTek Instruments, Winooski, VT, USA). Relative bacterial growth (%) was calculated as the ratio of OD630 at each concentration of the test samples to OD630 in the control (0 μg/mL). […]

Caco-2 cell monolayer = test: Caco-2 cell permeability assay; format: in vitro ADME, human
Description: The human colon adenocarcinoma cell line Caco-2 was obtained from the Russian Cell Culture Collection (Institute of Cytology, Russian Academy of Sciences, St. Petersburg, Russia). Caco-2 cells were cultured in DMEM medium supplemented with 10% FBS, L-glutamine, and penicillin/streptomycin in 75 cm^2 cell culture flasks (Jet Biofil, Guangzhou, China) at 37 °C in a humidified atmosphere containing 5% CO2 in a CO2 incubator. When the cells reached 60-70% confluence, the cells were sub-cultured into new flasks (1:6 ratio). […] Samples were collected from the bottom chamber and fluorescence intensity was measured using a fluorescence plate reader (excitation 492 nm; emission 520 nm). […] The content of vitamin B12 and the content of the HA-CT-B12 conjugate equivalent to vitamin B12 were determined spectrophotometrically at 360 nm using a calibration curve. […] The Papp was calculated using the following equation [33]:(1) […]0 where Papp is the apparent permeability coefficient (cm/s); dQ/dt -is the permeation rate (μg/s); A is the monolayer area (0.3 sm^2); and C0 is the concentration in the apical chamber at the initial moment of time (μg/mL).

Substance	Minimum inhibitory concentration (MIC) (P. aeruginosa ATCC 27853)	Apparent permeability coefficient (Papp) (Caco-2 cell monolayer; Caco-2)	Apparent permeability coefficient (Papp) (Caco-2 cell monolayer; Caco-2 monolayer, day 21, apical to basolateral, PBS, 2 h with sampling every 30 min, 1 mg CT, 28.5 mg vitamin B12 or 300 mg conjugate in 5 mL PBS, 0.5 mL applied, B12 and conjugate read at 360 nm, mean of n = 3)
colistin [CT]	2 µg/mL	0.04 ×10⁻⁶ cm/s	
cyanocobalamin [vitamin B12]			5.4 ×10⁻⁶ cm/s
